From patent US20240009191A1, “METHOD AND COMPOSITION FOR THE TREATMENT OF DISEASE” (DIMERIX BIOSCIENCE PTY LTD, priority 2019, published 2024)

Biological target: T1, CXCR2 (Homo sapiens, UniProt P25025)
T1 sequence (P25025 1-360): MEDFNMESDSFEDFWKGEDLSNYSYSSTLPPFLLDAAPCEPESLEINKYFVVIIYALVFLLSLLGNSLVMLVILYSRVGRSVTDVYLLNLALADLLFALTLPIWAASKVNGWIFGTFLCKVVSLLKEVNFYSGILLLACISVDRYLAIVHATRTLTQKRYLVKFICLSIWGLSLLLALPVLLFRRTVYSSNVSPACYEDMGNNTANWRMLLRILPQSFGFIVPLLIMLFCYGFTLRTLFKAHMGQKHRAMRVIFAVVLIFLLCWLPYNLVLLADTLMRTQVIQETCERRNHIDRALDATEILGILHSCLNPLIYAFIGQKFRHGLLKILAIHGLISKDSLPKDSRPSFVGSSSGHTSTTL
Assay: BRET trafficking of CXCR2/Rluc8 to Venus/Kras or Venus/Rab markers, absence of AT1R
Type: cell-based
Conditions: 100 nM CXCL8, 1 μM AngII
Experimental: HEK293FT cells were seeded in 6-well plates at a density of approximately 700,000 cells/well and maintained at 37° C., 5% CO2 in Complete Media (DMEM containing 0.3 mg/ml glutamine, 100 IU/ml penicillin and 100 μg/ml streptomycin (Gibco/Thermo Fisher)) supplemented with 10% fetal calf serum (FCS; Bovogen). Transient transfections were carried out 24 h after seeding using FuGene6™ (Promega) according to manufacturer instructions. 24 h post-transfection, cells were washed with PBS, detached using 0.05% trypsin/0.53 mM EDTA, resuspended in HEPES-buffered phenol red free Complete Media containing 5% FCS and added to a poly-L-lysine-coated white 96-well microplate (Greiner Bio-One). 48 h post-transfection, bioluminescence resonance energy transfer (BRET) assays were carried out following pre-incubation of cells with EnduRen™ (Promega) at a final concentration of 30 μM, at 37° C., 5% CO2 for 2 h. BRET measurements were taken at 37° C. using the LUMlstar™ or CLARIOstar™ (BMG Labtech). Filtered light emissions were measured for 1 s in each of the ‘donor wavelength window’ (460-490 nm for LUMlstar™ or 410-490 nm for CLARIOstar™) and ‘acceptor wavelength window’ (520-550 nm for LUMlstar™ or 520-620 nm for CLARIOstar™).
The BRET signal observed between interacting proteins is normalized by subtracting the background BRET ratio. This can be done in one of two ways (see Pfleger et al. (2006) Cell Signal 18:1664-1670; Pfleger et al. (2006) Nat Protoc 1:336-344): 1) the ratio of the 520-550 nm or 520-620 nm emission over the 460-490 nm or 410-490 nm emission for a cell sample containing only the donor construct is subtracted from the same ratio for a sample containing the interacting acceptor and donor fusion proteins; 2) the ratio of the 520-550 nm or 520-620 nm emission over the 460-490 nm or 410-490 nm emission for a cell sample treated with vehicle is subtracted from the same ratio for a second aliquot of the same cell sample treated with ligand. In the following examples, the second calculation will be used and the signal is described as ligand-induced BRET′. Furthermore, for data shown in FIGS. 4 to 20, all data points in a given set are corrected relative to the final data point prior to agonist treatment, which is fixed to zero. In keys on FIGS. 7 to 20, “>” means “followed by after 50 minutes”, with agonists added at time zero on the x-axes.
Referring now to FIG. 3 (published in Tiulpakov et al (2016) Mol. Endocrinol. 30, 889-904), the proximity of Rluc8-tagged receptors to Venus-tagged Kras plasma membrane marker, or Venus-tagged Rabs specific for distinct subcellular locations, is monitored in live cells and in real-time using BRET. The Rab markers are: Venus/Rab5 (5) for early endosomes; Venus/Rab4 (4) for early endosome recycling; Venus/Rab11a (11) for recycling endosomes; Venus/Rab7 (7) for late endosomes/lysosomes; Venus/Rab9 (9) for late endosome trafficking to the trans-Golgi network; Venus/Rab1 (1) for endoplasmic reticulum trafficking to the cis-Golgi; Venus/Rab6 (6) for Golgi apparatus and trans-Golgi network; or Venus/Rab8 (8) for trans-Golgi network to plasma membrane.

Angiotensin II [AngII]
no effect: proximity of CXCR2/Rluc8 to Venus/Rab6 (BRET) (Golgi apparatus to trans-Golgi network, FIG. 4I) | proximity of CXCR2/Rluc8 to Venus/Rab4 (BRET) (early endosome recycling, FIG. 4E) | proximity of CXCR2/Rluc8 to Venus/Rab5 (BRET) (early endosomes, FIG. 4G) | proximity of CXCR2/Rluc8 to Venus/Rab1 (BRET) (endoplasmic reticulum to cis-Golgi, FIG. 4C) | proximity of CXCR2/Rluc8 to Venus/Rab9 (BRET) (late endosome to trans-Golgi network, FIG. 4O) | proximity of CXCR2/Rluc8 to Venus/Rab7 (BRET) (late endosomes/lysosomes, FIG. 4K) | proximity of CXCR2/Rluc8 to Venus/Kras (BRET) (plasma membrane marker, FIG. 4A) | proximity of CXCR2/Rluc8 to Venus/Rab11a (BRET) (recycling endosomes, FIG. 4Q) | proximity of CXCR2/Rluc8 to Venus/Rab8 (BRET) (trans-Golgi network to plasma membrane, FIG. 4M)
